This is an account of results in US20250026778A1 (TIUMBIO CO., LTD., priority 2021, published 2025).

T1 sequence (P17931 whole entry): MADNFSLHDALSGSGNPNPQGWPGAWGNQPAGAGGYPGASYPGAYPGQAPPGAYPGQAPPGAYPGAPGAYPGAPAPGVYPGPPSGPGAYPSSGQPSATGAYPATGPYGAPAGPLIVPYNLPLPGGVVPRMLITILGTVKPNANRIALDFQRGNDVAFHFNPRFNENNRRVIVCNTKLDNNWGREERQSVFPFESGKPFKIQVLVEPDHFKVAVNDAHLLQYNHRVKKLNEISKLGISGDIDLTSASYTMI

One assay has as its target T1, his-galectin-3 (Homo sapiens, UniProt P17931).
T1 construct: purchased Abcam
The assay is described as follows: TR-FRET assay (in vitro galectin-3 binding inhibitory activity test). The settings on record: Table 1; compound at 20 μM; 60 nM his-galectin-3, 15 nM biotin-ASF; read-out: % Inhibitory activity (at 20 μM). Here is the method: TR-FRET Assay (In Vitro Galectin-3 Binding Inhibitory Activity Test)
TR-FRET assay was performed in ½ Area Plate-96 (PerkinElmer). Final concentrations of components in the assay were 60 nM his-galectin-3 (Abcam), 15 nM biotin-ASF (Axxora), 2 nM Mab anti-6×His Tb (Cisbio) and 20 nM SA-d2 (Cisbio). The reaction was performed in a buffer containing 25 mM HEPES, 100 mM NaCl, 0.005% Tween 20 and 0.05% BSA. 20 μL his-galectin-3 and 1 μL compound were mixed first, and then 20 μL biotin-ASF, 5 μL anti-His Tb and 5 μL SA-d2 were added in order. After incubation for at least 3.5 hours at RT, TR-FRET signals were measured at 615/665 nm […] wavelengths using a VICTOR Nivo (PerkinElmer). The positive control used DMSO instead of the compound, and the negative control excluded ASF-biotin. N-acetyl-D-lactosamine (LacNAc), an endogenous ligand unit of galectin-3, was evaluated together as a control substance to compare galectin-3 binding inhibitory activity.
A general note: TR-FRET usually uses a lanthanide donor and a delayed reading to cut background.
In the case of `OC[C@H]1O[C@@]2(CCCCO2)[C@H](OCC(F)F)[C@@H](n2cc(-c3cc(F)c(F)c(F)c3)nn2)[C@H]1O` [Compound A46, (2R,3R,4S,5R,6S)-5-(2,2-difluoroethoxy)-2-(hydroxymethyl)-4-(4-(3,4,5-trifluorophenyl)-1H-1,2,3-triazol-1-yl)-1,7-dioxaspiro[5.5]undecan-3-ol], the inhibition at 20 µM is 25 to 50%.

Consider `OC[C@H]1O[C@@]2(CCCCO2)[C@H](OCc2ccccc2O)[C@@H](n2cc(-c3cc(F)c(F)c(F)c3)nn2)[C@H]1O` [Compound A47, (2R,3R,4S,5R,6S)-5-((2-hydroxybenzyl)oxy)-2-(hydroxymethyl)-4-(4-(3,4,5-trifluorophenyl)-1H-1,2,3-triazol-1-yl)-1,7-dioxaspiro[5.5]undecan-3-ol], for which the inhibition at 20 µM lay in the range of 25 to 50%.

Regarding `OC[C@H]1O[C@@]2(CCCCO2)[C@H](OCc2cccc(F)c2)[C@@H](n2cc(-c3cc(F)c(F)c(F)c3)nn2)[C@H]1O` [Compound A48, (2R,3R,4S,5R,6S)-5-((3-fluorobenzyl)oxy)-2-(hydroxymethyl)-4-(4-(3,4,5-trifluorophenyl)-1H-1,2,3-triazol-1-yl)-1,7-dioxaspiro[5.5]undecan-3-ol], the inhibition at 20 µM fell in the range of 25 to 50%.

As to `OC[C@H]1O[C@@]2(CCCCO2)[C@H](OCc2cccc(C(F)(F)F)c2)[C@@H](n2cc(-c3cc(F)c(F)c(F)c3)nn2)[C@H]1O` [Compound A49, (2R,3R,4S,5R,6S)-2-(hydroxymethyl)-5-((3-(trifluoromethyl)benzyl)oxy)-4-(4-(3,4,5-trifluorophenyl)-1H-1,2,3-triazol-1-yl)-1,7-dioxaspiro[5.5]undecan-3-ol], the inhibition at 20 µM is 25 to 50%.

As for `OC[C@H]1O[C@@]2(CCCCO2)[C@H](OCc2ccccn2)[C@@H](n2cc(-c3cc(F)c(F)c(F)c3)nn2)[C@H]1O` [Compound A50, (2R,3R,4S,5R,6S)-2-(hydroxymethyl)-5-(pyridin-2-ylmethoxy)-4-(4-(3,4,5-trifluorophenyl)-1H-1,2,3-triazol-1-yl)-1,7-dioxaspiro[5.5]undecan-3-ol], the inhibition at 20 µM is 25 to 50%.

Consider `O=C(O[C@@H]1[C@@H](n2cc(-c3cc(F)c(F)c(F)c3)nn2)[C@@H](O)[C@@H](CO)O[C@@]12CCCCO2)c1cccc(F)c1` [Compound A51, (2R,3R,4S,5R,6S)-3-hydroxy-2-(hydroxymethyl)-4-(4-(3,4,5-trifluorophenyl)-1H-1,2,3-triazol-1-yl)-1,7-dioxaspiro[5.5]undecan-5-yl 3-fluorobenzoate], for which the inhibition at 20 µM was 25 to 50%.

For the molecule `O=C(O[C@@H]1[C@@H](n2cc(-c3cc(F)c(F)c(F)c3)nn2)[C@@H](O)[C@@H](CO)O[C@@]12CCCCO2)c1cccc(C(F)(F)F)c1` [Compound A52, (2R,3R,4S,5R,6S)-3-hydroxy-2-(hydroxymethyl)-4-(4-(3,4,5-trifluorophenyl)-1H-1,2,3-triazol-1-yl)-1,7-dioxaspiro[5.5]undecan-5-yl 3-(trifluoromethyl)benzoate], the inhibition at 20 µM is under 25%.

On to `COc1cccc(C(=O)O[C@@H]2[C@@H](n3cc(-c4cc(F)c(F)c(F)c4)nn3)[C@@H](O)[C@@H](CO)O[C@@]23CCCCO3)c1` [Compound A53, (2R,3R,4S,5R,6S)-3-hydroxy-2-(hydroxymethyl)-4-(4-(3,4,5-trifluorophenyl)-1H-1,2,3-triazol-1-yl)-1,7-dioxaspiro[5.5]undecan-5-yl 3-methoxybenzoate], for which the inhibition at 20 µM lay in the range of 25 to 50%.

`N[C@@H]1CCO[C@]12O[C@H](CO)[C@H](O)[C@H](n1cc(-c3cc(F)c(F)c(F)c3)nn1)[C@H]2O` [Compound A56, (4R,5S,7R,8R,9S,10R)-4-amino-7-(hydroxymethyl)-9-(4-(3,4,5-trifluorophenyl)-1H-1,2,3-triazol-1-yl)-1,6-dioxaspiro[4.5]decane-8,10-diol]: the inhibition at 20 µM is under 25%.

In the case of `OC[C@H]1O[C@@]2(CCCCO2)[C@H](OCc2cccnc2)[C@@H](n2cc(-c3cc(F)c(F)c(F)c3)nn2)[C@H]1O` [Compound A58, (2R,3R,4S,5R,6S)-2-(hydroxymethyl)-5-(pyridin-3-ylmethoxy)-4-(4-(3,4,5-trifluorophenyl)-1H-1,2,3-triazol-1-yl)-1,7-dioxaspiro[5.5]undecan-3-ol], the inhibition at 20 µM is 25 to 50%.

Take `O=C(N[C@@H]1CCO[C@]12O[C@H](CO)[C@H](O)[C@H](n1cc(-c3cc(F)c(F)c(F)c3)nn1)[C@H]2O)c1cccc(F)c1` [Compound A60, N-((4R,5S,7R,8R,9S,10R)-8,10-dihydroxy-7-(hydroxymethyl)-9-(4-(3,4,5-trifluorophenyl)-1H-1,2,3-triazol-1-yl)-1,6-dioxaspiro[4.5]decan-4-yl)-3-fluorobenzamide]: the inhibition at 20 µM is under 25%.

On to `OC[C@H]1O[C@]2(OCC[C@H]2NCc2cccc(F)c2)[C@H](O)[C@@H](n2cc(-c3cc(F)c(F)c(F)c3)nn2)[C@H]1O` [Compound A62, (4R,5S,7R,8R,9S,10R)-4-((3-fluorobenzyl)amino)-7-(hydroxymethyl)-9-(4-(3,4,5-trifluorophenyl)-1H-1,2,3-triazol-1-yl)-1,6-dioxaspiro[4.5]decane-8,10-diol], for which the inhibition at 20 µM lay in the range of 50 to 75%.

The assay is the same for the next values; noted with them: Table 3, found values; compound at 20 μM; 60 nM his-galectin-3, 15 nM biotin-ASF; read-out: % Inhibitory activity (at 20 μM).
Turning to `OC[C@H]1O[C@@]2(CCCCO2)[C@H](OCc2cccc(F)c2)[C@@H](n2cc(-c3cc(F)c(F)c(F)c3)nn2)[C@H]1O` [Compound A48, (2R,3R,4S,5R,6S)-5-((3-fluorobenzyl)oxy)-2-(hydroxymethyl)-4-(4-(3,4,5-trifluorophenyl)-1H-1,2,3-triazol-1-yl)-1,7-dioxaspiro[5.5]undecan-3-ol], the inhibition at 20 µM is 43.7%.

Staying with this assay, now noted: read-out: % Inhibitory activity (at 20 μM), Table 1; compound at 20 μM; 60 nM his-galectin-3, 15 nM biotin-ASF.
For the molecule `O=C(O)CO[C@@H]1[C@@H](n2cc(-c3cc(F)c(F)c(F)c3)nn2)[C@@H](O)[C@@H](CO)O[C@@]12CCCCO2` [Compound A54, 2-(((2R,3R,4S,5R,6S)-3-hydroxy-2-(hydroxymethyl)-4-(4-(3,4,5-trifluorophenyl)-1H-1,2,3-triazol-1-yl)-1,7-dioxaspiro[5.5]undecan-5-yl)oxy)acetic acid], the inhibition at 20 µM lay within 25 to 50%.

Take `CC(O[C@@H]1[C@@H](n2cc(-c3cc(F)c(F)c(F)c3)nn2)[C@@H](O)[C@@H](CO)O[C@@]12CCCCO2)C(=O)O` (stereo partly drawn) [Compound A55, 2-(((2R,3R,4S,5R,6S)-3-hydroxy-2-(hydroxymethyl)-4-(4-(3,4,5-trifluorophenyl)-1H-1,2,3-triazol-1-yl)-1,7-dioxaspiro[5.5]undecan-5-yl)oxy)propanoic acid]: the inhibition at 20 µM is 50 to 75%.

On to `O=C(O[C@@H]1[C@@H](n2cc(-c3cc(F)c(F)c(F)c3)nn2)[C@@H](O)[C@@H](CO)O[C@@]12CCCCO2)c1ccccn1` [Compound A57], for which the inhibition at 20 µM was 50 to 75%.

On to `Cc1ccc(S(=O)(=O)O[C@@H]2[C@@H](n3cc(-c4cc(F)c(F)c(F)c4)nn3)[C@@H](O)[C@@H](CO)O[C@@]23CCCO3)cc1` [Compound A59, (5S,7R,8R,9S,10R)-8-hydroxy-7-(hydroxymethyl)-9-(4-(3,4,5-trifluorophenyl)-1H-1,2,3-triazol-1-yl)-1,6-dioxaspiro[4.5]decan-10-yl 4-methylbenzenesulfonate], for which the inhibition at 20 µM is 25 to 50%.

In the case of `O=C(O[C@@H]1[C@@H](n2cc(-c3cc(F)c(F)c(F)c3)nn2)[C@@H](O)[C@@H](CO)O[C@@]12CCCCO2)c1cccnc1` [Compound A61, (2R,3R,4S,5R,6S)-3-hydroxy-2-(hydroxymethyl)-4-(4-(3,4,5-trifluorophenyl)-1H-1,2,3-triazol-1-yl)-1,7-dioxaspiro[5.5]undecan-5-yl nicotinate], the inhibition at 20 µM lay in the range of 25 to 50%.

Still in this assay, the particulars now being: read-out: % Inhibitory activity (at 20 μM), Table 3, found values; compound at 20 μM; 60 nM his-galectin-3, 15 nM biotin-ASF.
With `CC(O[C@@H]1[C@@H](n2cc(-c3cc(F)c(F)c(F)c3)nn2)[C@@H](O)[C@@H](CO)O[C@@]12CCCCO2)C(=O)O` (stereo partly drawn) [Compound A55, 2-(((2R,3R,4S,5R,6S)-3-hydroxy-2-(hydroxymethyl)-4-(4-(3,4,5-trifluorophenyl)-1H-1,2,3-triazol-1-yl)-1,7-dioxaspiro[5.5]undecan-5-yl)oxy)propanoic acid], the inhibition at 20 µM was 60%.
